The nature of series [1]: Microsomal stability assay, rat liver microsomes. It counts as in vitro ADME. The settings on record: pH 7.4; rat liver microsomes 1.0 mg/mL, 1 μM compound, NADPH; read-out: RLM t1/2. How it is done: Compounds were also tested for metabolic stability in both rat liver microsomes (RLM) and the compounds are tested for human liver microsomes (HLM) and their half-life is calculated (See Tables 5A and 5B). The assay was performed as follows. The total volume for each incubation was 250 μL. A 100 μM DMSO solution of compound (diluted from 10 mM stock solution) was spiked into 50 mM KH2PO4 (pH 7.4) buffer containing liver microsome at a concentration of 1.0 mg/mL. The reaction was initiated by the addition of 50 μL of 1 mM NADPH. The final concentration of each compound was 1 μM (1% DMSO). The positive controls, phenacetin for CYP1A2, diclofenac for CYP2C9, omeprazole for CYP2C19, dextromethorphan for CYP2D6 and midazolam for CYP3A4 were added to a separate tube with the final substrate concentrations of 1 μM (1% DMSO) for evaluating the enzyme activities in the liver microsomes. At 0, 15, 30 and 60 min, an aliquot of 15 μL reaction mixtures were removed and 200 μL of methanol (with internal standard of 25 ng/mL propranolol) was added to quench the reaction. The resulting mixture was centrifuged and supernatant was used for LC-MS/MS analysis.
The signals for each compound, or the metabolites for the probe substrates and the internal standard were integrated and the peak area ratios to internal standard were generated. Percent parent remaining at a specified timepoint was calculated based on the peak area ratios at time 0 (as 100%) for in vitro metabolic stability studies in liver microsome and hepatocyte. The observed rate constant (kobs) for the metabolism of substrates was calculated by plotting the natural log of percentage substrate remaining versus time of incubation with the slope being kobs. The half-life (T1/2) was calculated according to the following equation: T1/2=[…]

Another series deals with A549 (lung). The series is described as follows: Cancer cell proliferation assay (acid phosphatase). Conditions: Homo sapiens, A549, 72 h, Table 6A; 72 hrs; read-out: A549 IC50. It counts as cell-based. The essentials: (§1)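 Cells seeded at 4×10^4 cells/ml were incubated overnight at 37° C., 5% CO2, then exposed to compound at varying concentrations in triplicate for 72 hrs. Proliferation was read by acid phosphatase assay (p-nitrophenol phosphate, pH 5.5, 2 hours, 405 nm minus 620 nm) as percent inhibition versus DMSO controls.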

Another series deals with LS-174T (colon). Nature of the series: Cancer cell proliferation assay (acid phosphatase). It counts as cell-based. The settings on record: Homo sapiens, LS174T; Table 6A; 72 hrs. The essentials: as §1
The next series relates to TOV-21G (ovarian). Nature of the series: Cancer cell proliferation assay (acid phosphatase). The settings on record: Homo sapiens, TOV21G, 72 h, Table 6A; 72 hrs; read-out: TOV-21G IC50. It counts as cell-based. In outline:
as §1

The next series relates to HCT-116 (colon). The series is described as follows: Cancer cell proliferation assay (acid phosphatase). The settings on record: Homo sapiens, HCT-116, 72 h, Table 6A; 72 hrs; read-out: HCT-116 IC50. It counts as cell-based. In outline:
as §1

Each structure is given as a SMILES string.

Consider `Cc1ccccc1C(=O)Nc1nc(NC(=O)c2ccccc2C)n(-c2ccc(F)cc2F)n1` [Compound 46], for which, in series [1], the half-life at 1 μM was determined as 1.62 h. The IC50 came to 2.5 µM with A549 (lung), 2.5 µM in the series with LS-174T (colon) and 2.4 µM in the series with TOV-21G (ovarian).

As for `Cc1ccccc1C(=O)Nc1nc(NCc2ccccc2)nn1-c1ccc(C(F)(F)F)cc1` [Compound 102], in series [1], the half-life at 1 μM stood at 0.167 h. Further, the IC50 is over 2.5 µM with A549 (lung), 2.5 µM with HCT-116 (colon) and over 2.5 µM with TOV-21G (ovarian).

Regarding `Cc1ccccc1C(=O)Nc1nc(NC(=O)c2ccncc2)nn1-c1ccccc1` [Compound 34], in series [1], the half-life at 1 μM was 5.5 h. Further, the IC50 stood at 2.5 µM with A549 (lung), 2.6 µM in the series with LS-174T (colon) and 1.5 µM in the series with TOV-21G (ovarian).

For the compound `Cc1ccccc1C(=O)Nc1nc(NC(=O)c2cnccn2)n(-c2ccccc2)n1` [Compound 17], the half-life at 1 μM in series [1] was determined as 0.433 h. Also, the IC50 in the series with TOV-21G (ovarian) was over 1 µM.

With `Cc1ccccc1C(=O)Nc1nc(NC(=O)c2ccno2)n(-c2ccccc2)n1` [Compound 7], the half-life at 1 μM in series [1] stood at 3.98 h. Moreover, the IC50 in the series with TOV-21G (ovarian) was over 1 µM.

`Cc1ccccc1C(=O)Nc1nc(NC(=O)c2ccccc2C)n(-c2ccccc2F)n1` [Compound 32]: the half-life at 1 μM in series [1] amounted to 3.4 h. For the same compound, the IC50 in the series on A549 (lung), in the series with LS-174T (colon) and in the series on TOV-21G (ovarian) was over 2.5 µM throughout.

`Cc1ccccc1C(=O)Nc1nc(NC(=O)c2ccccc2C)n(-c2ccc(C#N)cc2)n1` [Compound 35]: the half-life at 1 μM in series [1] was determined as 3.3 h. Besides, the IC50 worked out at 2.4 µM in the series on A549 (lung), 2.3 µM with LS-174T (colon) and 1.4 µM in the series on TOV-21G (ovarian).

For the compound `C#Cc1ccc(C(=O)Nc2nc(NC(=O)c3cccc(N=[N+]=[N-])c3)n(-c3ccccc3)n2)cc1` [Compound 2], the half-life at 1 μM in series [1] was found to be 0.683 h. The IC50 was 2.2 µM with A549 (lung), 642 µM in the series with HCT-116 (colon) and 2.2 µM in the series on TOV-21G (ovarian).

Turning to `COc1ccc(C(=O)Nc2nc(NC(=O)c3ccc(OC)cc3)n(-c3ccccc3)n2)cc1` [Compound 37], the half-life at 1 μM in series [1] came to 0.35 h. Moreover, the IC50 in the series on A549 (lung) worked out at 2.3 µM; in the series with LS-174T (colon), 2.4 µM; in the series on TOV-21G (ovarian), 1.9 µM.

With `O=C(Nc1nc(NC(=O)c2ccncc2)n(-c2ccccc2)n1)c1ccncc1` [Compound 33], the half-life at 1 μM in series [1] was found to be 3.3 h. The IC50 in the series on A549 (lung) and in the series on TOV-21G (ovarian) was over 2.5 µM throughout.

Turning to `Cc1ccccc1C(=O)Nc1nc(NC(=O)c2ccccc2C)n(-c2ccccc2Cl)n1` [Compound 26], in series [1], the half-life at 1 μM was 0.967 h. For the same compound, the figures for the IC50 with A549 (lung), in the series with LS-174T (colon) and in the series with TOV-21G (ovarian) were 2.5 µM, over 1 µM and 2.1 µM, respectively.

For `O=C(Nc1nc(NC(=O)c2cccnc2)n(-c2ccccc2)n1)c1cccnc1` [Compound 40], the half-life at 1 μM in series [1] was over 8.33 h. Besides, the half-inhibitory concentration (IC50) with LS-174T (colon) and in the series on TOV-21G (ovarian) was over 2.5 µM in each case.

For `O=C(Nc1nc(NC(=O)c2ccccn2)n(-c2ccccc2)n1)c1ccccn1` [Compound 41], in series [1], the half-life at 1 μM was 0.283 h. Moreover, the IC50 was 2.5 µM in the series on A549 (lung), 2.5 µM in the series with LS-174T (colon) and over 2.5 µM with TOV-21G (ovarian).

`Cc1ccc(-n2nc(NC(=O)c3ccccc3C)nc2NC(=O)c2ccccc2C)cc1` [Compound 31]: the half-life at 1 μM in series [1] stood at 0.233 h. Further, the IC50 is 2.5 µM in the series on A549 (lung), over 2.5 µM in the series on LS-174T (colon) and 2.3 µM in the series on TOV-21G (ovarian).

On to `Cc1ccccc1C(=O)Nc1nc(NC(=O)C2CCCN2)nn1-c1ccccc1` (stereo not shown) [Compound 20], for which, in series [1], the half-life at 1 μM was found to be 2.45 h. In addition, the IC50 with LS-174T (colon) and in the series on TOV-21G (ovarian) was over 1 µM throughout.

On to `Cc1ccccc1C(=O)Nc1nc(NC(=O)c2ccccn2)nn1-c1ccccc1` [Compound 16], for which, in series [1], the half-life at 1 μM was 2.35 h. The figures for the IC50 with A549 (lung) and in the series with TOV-21G (ovarian) were 2.6 µM and 2.3 µM, respectively.

As to `Cc1ccccc1C(=O)Nc1nc(NC(=O)c2cccnc2)nn1-c1ccccc1` [Compound 6], the half-life at 1 μM in series [1] was found to be 0.0833 h. In the series with TOV-21G (ovarian), the IC50 was 1.2 µM.
